Reference: patent US6841567B1, “Cyclic substituted fused pyrrolocarbazoles and isoindolones” (Cephalon, Inc., priority 1999, dated 2005)
pIC50: −log10 of the molar value.

Legend:
[1] = test system: protein kinase C (UBI; mixed isozymes of a, b, g); test: Inhibition of protein kinase C activity (Millipore Multiscreen TCA in-plate assay); assay type: biochemical; conditions: for Protein kinase C activity, values in parentheses: concentration not given
Experimental: Protein kinase C activity was assessed using the Millipore Multiscreen TCA “in-plate” assay as described in Pitt, A. M. and Lee, C. (J. Biomol. Screening, 1: 47-51, 1996). Assays were performed in 96-well Multiscreen-DP plates (Millipore). Each […] assay mixture contained 20 mM Hepes, pH 7.4, 10 mM MgCl2, 2.5 mM EGTA, 2.5 mM CaCl2, […] phosphatidyl serine, […] diolein, […] histone H-1 (Fluka), […] [γ-^32P]ATP, 1.5 ng protein kinase C (UBI; mixed isozymes of a, b, g), 0.1% BSA, 2% DMSO, and test cyclic substituted fused pyrrolocarbazole compound. The reaction was allowed to proceed for 10 min at 37° C., then quenched by adding ice cold 50% trichloroacetic acid. The plates were allowed to equilibrate for 30 min at 4° C., then washed with ice cold 25% TCA. Scintillation cocktail was added to the plates, and the radioactivity was determined using Wallac MicroBeta 1450 PLUS scintillation counter. The IC50 values were calculated by fitting the data to the sigmoidal dose-response (variable slope) equation in GraphPad Prism.

[2] = target: T1, baculovirus-expressed human trkA cytoplasmic domain (Homo sapiens, UniProt P04629); test: Inhibition of trkA tyrosine kinase activity (ELISA-based assay); assay type: biochemical; conditions: for pIC50: 40 μM ATP
T1 construct: baculovirus-expressed human trkA cytoplasmic domain; made in house; host or cells: baculovirus expression system
T1 sequence (P04629 440-796 limits assumed): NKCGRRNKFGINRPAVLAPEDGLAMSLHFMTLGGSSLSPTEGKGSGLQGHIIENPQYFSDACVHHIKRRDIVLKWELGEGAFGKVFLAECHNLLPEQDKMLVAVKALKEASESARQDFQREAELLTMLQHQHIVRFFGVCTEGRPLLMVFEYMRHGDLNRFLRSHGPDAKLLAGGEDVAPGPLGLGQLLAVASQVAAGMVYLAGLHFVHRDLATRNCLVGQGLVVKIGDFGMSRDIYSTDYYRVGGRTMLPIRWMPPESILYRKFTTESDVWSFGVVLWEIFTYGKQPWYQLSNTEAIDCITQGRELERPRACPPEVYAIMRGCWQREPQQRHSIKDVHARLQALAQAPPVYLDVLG
Experimental: Selected cyclic substituted fused pyrrolocarbazole and isoindolone compounds were tested for their ability to inhibit the kinase activity of baculovirus-expressed human trkA cytoplasmic domain using an ELISA-based assay as previously described (Angeles et al., Anal. Biochem. 236: 49-55, 1996). Briefly, the 96-well microtiter plate was coated with substrate solution (recombinant human phospholipase C-γ1/glutathione S-transferase fusion protein (Rotin et al., EMBO J., 11: 559-567, 1992). Inhibition studies were performed in 100 μl assay mixtures containing 50 mM Hepes, pH 7.4, 40 μM ATP, 10 mM MnCl2, 0.1% BSA, 2% DMSO, and various concentrations of inhibitor. The reaction was initiated by addition of trkA kinase and allowed to proceed for 15 minutes at 37° C. An antibody to phosphotyrosine (UBI) was then added, followed by a secondary enzyme-conjugated antibody, alkaline phosphatase-labelled goat antII-mouse IgG (Bio-Rad). The activity of the bound enzyme was measured via an amplified detection system (Gibco-BRL). Inhibition data were analyzed using the sigimoidal dose-response (variable slope) equation in GraphPad Prism.

[3] = target: T2, trkA (NIH3T3 cells transfected with trkA) (Homo sapiens, UniProt P04629); test: Inhibition of NGF-stimulated trk phosphorylation in a whole cell preparation; assay type: cell-based; conditions: NGF 10 ng/ml; for Cell Score @ 100 nM (percent decrease in trk protein band): 100 nM compound; for Cell Score @ 1 uM (percent decrease in trk protein band): 1 uM compound
T2 construct: expressed in transfected cells; host or cells: NIH3T3
T2 sequence (P04629 33-796, species assumed): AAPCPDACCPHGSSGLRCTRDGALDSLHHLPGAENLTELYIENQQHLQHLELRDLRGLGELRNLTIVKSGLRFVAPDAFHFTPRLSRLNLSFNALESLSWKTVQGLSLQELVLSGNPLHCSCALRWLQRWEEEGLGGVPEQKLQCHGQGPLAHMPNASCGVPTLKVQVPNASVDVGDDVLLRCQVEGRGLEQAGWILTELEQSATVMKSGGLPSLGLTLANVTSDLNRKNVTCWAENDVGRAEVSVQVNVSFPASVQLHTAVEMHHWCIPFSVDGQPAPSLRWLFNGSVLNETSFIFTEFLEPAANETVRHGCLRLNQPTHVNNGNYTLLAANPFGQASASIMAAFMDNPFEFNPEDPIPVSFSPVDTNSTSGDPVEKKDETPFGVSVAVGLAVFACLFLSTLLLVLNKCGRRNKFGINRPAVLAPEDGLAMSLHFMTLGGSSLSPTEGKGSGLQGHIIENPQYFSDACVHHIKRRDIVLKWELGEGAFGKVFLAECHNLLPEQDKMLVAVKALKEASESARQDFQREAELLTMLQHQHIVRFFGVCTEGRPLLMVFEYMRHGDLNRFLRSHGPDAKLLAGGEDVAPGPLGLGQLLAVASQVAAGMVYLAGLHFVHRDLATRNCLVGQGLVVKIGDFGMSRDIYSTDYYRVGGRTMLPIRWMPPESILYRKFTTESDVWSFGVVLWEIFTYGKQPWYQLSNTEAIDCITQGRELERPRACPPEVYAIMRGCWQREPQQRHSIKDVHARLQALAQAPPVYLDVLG
Experimental: NIH3T3 cells transfected with trkA were grown in 100 mm dishes. Subconfluent cells were serum-starved by replacing media with serum-free 0.05% BSA-DMEM containing compound (100 nM and 1 μM) or DMSO (added to controls) for one hour at 37° C. NGF (Harlan/Bioproducts for Science) was then added to the cells at a concentration of 10 ng/ml for 5 minutes. Cells were lysed in buffer containing detergent and protease inhibitors. Clarified cell lysates were normalized to protein using BCA method and immunoprecipitated with antII-trk antibody. Polyclonal antII-trk antibody was prepared against a peptide corresponding to the 14 amino acids at the carboxy terminus of trk (Martin-Zanca et al., Mol. Cell. Biol. 9: 24-33, 1989). The immune complexes were collected on Protein A Sepharose beads (Sigma Chem. Co., St. Lois, Mo.), separated by SDS polyacrylamide gel electrophoresis (SDS-PAGE), and transferred to a polyvinylidene difluoride (PVDF) membrane. The membrane was immunoblotted with antII-phosphotyrosine antibody (UBI), followed by incubation with horseradish peroxidase coupled goat antII-mouse IgG (Bio-Rad Laboratories, Hercules, Calif.). Phosphorylated proteins were visualized using ECL (Arnersham Life Science, Inc., Arlington Heights, Ill.). The area of the trk protein band was measured and compared to NGF-stimulated control. The inhibition scoring system used, based on percent decrease in trk protein band, was as follows: 0=no decrease; 1=1-25%; 2=26-49%; 3=50-75%; 4=76-100%.

[4] = target: T3, VEGF receptor (human flk-1, KDR, VEGFR2) kinase domain (Homo sapiens, UniProt P35968); test: Inhibition of vascular endothelial growth factor receptor kinase activity (ELISA); assay type: biochemical; conditions: for pIC50: 40 μM ATP
T3 construct: VEGF receptor (human flk-1, KDR, VEGFR2) kinase domain; made in house; host or cells: baculovirus expression system
T3 sequence (P35968 834-1162 limits assumed): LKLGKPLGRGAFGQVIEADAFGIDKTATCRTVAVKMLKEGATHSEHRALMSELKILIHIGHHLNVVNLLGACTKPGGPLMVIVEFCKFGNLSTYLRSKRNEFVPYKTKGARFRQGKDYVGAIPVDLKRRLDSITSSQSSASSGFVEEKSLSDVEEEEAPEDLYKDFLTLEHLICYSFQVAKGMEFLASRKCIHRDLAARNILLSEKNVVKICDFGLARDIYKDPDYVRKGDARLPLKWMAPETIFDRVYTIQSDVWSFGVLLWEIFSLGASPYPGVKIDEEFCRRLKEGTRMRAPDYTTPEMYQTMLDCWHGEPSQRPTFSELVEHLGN
Experimental: Cyclic substituted fused pyrrolocarbazole and isoindolone compounds were examined for their inhibitory effects on the kinase activity of baculovirus-expressed VEGF receptor (human flk-1, KDR, VEGFR2) kinase domain using the procedure described for the trkA kinase ELISA assay described above. The kinase reaction mixture, consisting of 50 mM Hepes, pH 7.4, 40 μM ATP, 10 mM MnCl2, 0.1% BSA, 2% DMSO, and various concentrations of inhibitor, was transferred to PLC-γ/GST-coated plates. VEGFR kinase was added and the reaction was allowed to proceed for 15 min. at 37 C. Detection of phosphorylated product was accomplished by addition of antII-phosphotyrosine antibody (UBI). A secondary enzymeconjugated antibody was delivered to capture the antibody-phosphorylated PLC-γ/GST complex. The activity of the bound enzyme was measured via an amplified detection system (Gibco-BRL). Inhibition data were analyzed using the sigmoidal dose-response (variable slope) equation in GraphPad Prism.

O=C1NCc2c1c1c(c3c2c2ccccc2n3CC2CCCOC2)Cc2ccccc2-1 (racemic) [II-63]
Protein kinase C activity, values in parentheses [1]: (28)
trkA kinase activity % Inh. @ 300 nM (values in parentheses) ([2]; 300 nM compound): (28) %

CC1(C2c3ccccc3-c3c4c(c5c([nH]c6ccccc65)c32)CNC4=O)CC(O)(CO)CO1 (stereo not drawn) [II-26]
pIC50 [1]: 5.68
Cell Score @ 100 nM (percent decrease in trk protein band) [3]: 2 (2=26-49%)
Cell Score @ 1 uM (percent decrease in trk protein band) [3]: 4 (4=76-100%)
inhibition at 0.3 µM ([4]; 300 nM compound, read-out: VEGF receptor kinase activity % Inh. @ 300 nM (values in parentheses)): 48%
pIC50 [2]: 7.35

O=C1NCc2c1c1c(c3[nH]c4ccccc4c23)C(C2(O)CCOCC2)c2ccccc2-1 (stereo not drawn) [II-03]
pIC50 [1]: 5.39
pIC50 [2]: 7.14

O=C1NCc2c1c1c(c3[nH]c4ccccc4c23)C(C2(CO)CCCO2)c2ccccc2-1 (stereo not drawn) [II-21]
pIC50 [1]: < 5.00
Cell Score @ 100 nM (percent decrease in trk protein band) [3]: 2 (2=26-49%)
Cell Score @ 1 uM (percent decrease in trk protein band) [3]: 4 (4=76-100%)
pIC50 [2]: 7.82

O=C1NCc2c1c1c(c3[nH]c4ccccc4c23)C(C2CCCO2)c2ccccc2-1 (stereo not drawn) [II-07]
pIC50 [1]: 5.15
Cell Score @ 100 nM (percent decrease in trk protein band) [3]: 1 (1=1-25%)
Cell Score @ 1 uM (percent decrease in trk protein band) [3]: 2 (2=26-49%)
pIC50 [2]: 7.72

CN1CCC(O)(C2c3ccccc3-c3c4c(c5c([nH]c6ccccc65)c32)CNC4=O)CC1 (stereo not drawn) [II-10]
pIC50 [1]: 5.80
pIC50 [2]: 6.74

O=C1NCc2c1c1c(c3[nH]c4ccccc4c23)C(C2(O)CCN(Cc3ccccc3)CC2)c2ccccc2-1 (stereo not drawn) [II-02]
pIC50 [1]: 5.12
pIC50 [2]: 7.19

O=C1NCc2c1c1c(c3c2c2ccccc2n3CC2CCCCO2)Cc2ccccc2-1 (racemic) [II-62]
Protein kinase C activity, values in parentheses [1]: (27)
trkA kinase activity % Inh. @ 300 nM (values in parentheses) ([2]; 300 nM compound): (27) %

O=C1NCc2c1c1c(c3[nH]c4ccccc4c23)C(C2(O)CCCO2)c2ccccc2-1 (stereo not drawn) [II-42]
pIC50 [1]: 5.21
pIC50 [4]: 5.86
pIC50 [2]: 6.83

O=C1NCc2c1c1c(c3[nH]c4ccccc4c23)C(C2(O)CCc3ccccc3C2)c2ccccc2-1 (stereo not drawn) [II-15]
pIC50 [1]: < 5.00
inhibition at 0.3 µM ([2]; 300 nM compound, read-out: trkA kinase activity % Inh. @ 300 nM (values in parentheses)): 26%

O=C1NCc2c1c1c(c3[nH]c4ccccc4c23)C(C2CCC(O)O2)c2ccccc2-1 (single isomer, unassigned) [II-38]
pIC50 [1]: < 5.00
Cell Score @ 100 nM (percent decrease in trk protein band) [3]: 2 (2=26-49%)
Cell Score @ 1 uM (percent decrease in trk protein band) [3]: 2 (2=26-49%)
pIC50 [4]: 5.29
pIC50 [2]: 6.39
